Reference: US20030108523A1, “Cancer treatment system” (priority 2001, published 2003)

How the values were obtained:
NF-κB = conditions: U937 cells; cited from earlier work
Mesothelioma cells = test: Cell-growth inhibition assay (MTT colorimetric assay); assay type: cell-based, human
Procedure: Various mesothelioma cell lines were established from specimens obtained from pleural effusions of patients with established pleural malignant mesothelioma. Cell cultures were performed according to standard methods. Briefly, pleural effusions were centrifuged and the cell pellets were transferred into 25 cm^2 tissue culture flasks. The medium consisted of RPMI 1640 supplemented with 10% fetal bovine serum, 2 mM glutamine, 10 mM HEPES buffer, 50 U/ml penicillin, and 50 μg/ml streptomycin. Cultures were maintained in humidified atmosphere of 5% CO2 at 37° C. and examined daily. When cells were confluent, a trypsin-EDTA mixture in PBS was used to detach the cells, and the cultures were used between passages 5 and 20.
Mesothelioma cells were counted and dispensed into eight, 96-well tissue-culture plates (Costar, Cambridge, Mass.) at a concentration of 2,000 cells/well in 100 μl of culture medium. […] Culture plates were then incubated for different times between 0 and 168 hours and cell proliferation was measured every 24 hours. […]
Cell proliferation was determined by a colorimetric assay using MTT [3(4,5-dimethylthiazol-2yl)2,5-diphenyltetrazolium bromide], a tetrazolium salt which is reduced to a colored formazan product by reducing enzymes present only in metabolically active cells. (See Alley et al., “Feasibility of drug screening with panel of human tumor cell lines using a microculture tetrazolium assay” Cancer Res. 48: 589-601, 1988.) Thus, metabolically active cells such as cells undergoing division will produce more formazan, which can be detected by a spectrophotometer.
Briefly, twenty-five μls of MTT solution were added to culture wells containing cells as described above. […] Absorption of each well was measured using a spectrophotometer at 540 nm. The effect of α-MSH on cell proliferation was determined as percent OD difference in α-MSH treated wells relative to control wells. […]

[1] = in vivo; cited from earlier work

For “SYSMEHFRWGKPV (listed as Homo sapiens) [α-MSH, thirteen amino-acid peptide produced by post-translational processing of propiomelanocortin]”, the “NF-κB activation induced by TNF-α, endotoxin, ceramide and okadaic acid” value (NF-κB) is listed as “downregulates NF-κB activation”, the “Dose dependence of the inhibitory effect on mesothelioma cell proliferation” value (Mesothelioma cells; 10^-6 to 10^-4 M, FIG. 2) is listed as “dose-dependent” and the “Concentration at which the inhibitory effect was most significant and consistent” value (Mesothelioma cells; FIG. 2) is listed as 10^−4 M. The “Cell proliferation of treated versus control wells, early intervals” value (Mesothelioma cells; intervals between 24 and 72 h) was “no difference in cell proliferation”.
For [Nle4-D-Phe7]-α-MSH, the “Potency in reducing fever relative to the parent peptide α-MSH” value [1] is listed as “approximately ten times more potent”.
